{"source": "patent US6750012B1", "about": "“Method of identifying a psychotropic agent using differential gene expression” (CuraGen Corporation, priority 1998, dated 2004)", "test_in_all_cases": "GENECALLING differential gene expression, striatum of haloperidol-treated rats", "type_in_all_cases": "in vivo, rat", "key": {"[1]": {"system": "HALO18, novel gene fragment, encoded polypeptide 80% similar to human predicted protein DJ257A7.1 [AL008729]", "protocol": "(§1) Accordingly, the differentially expressed genes were identified by treating Wistar rats with haloperidol (0.041 mg/kg/d for 3 days via continuous infusion Alza pump), or rats treated with vehicle only for 3 days.\n(§2) Rats were then sacrificed, their brains were removed, and total RNA was recovered from the microdissected striatum. cDNA was prepared and the resulting samples were processed through 140 subsequences of GENECALLING™ differential expression analysis as described in U.S. Pat. No. 5,871,697 and in Shimkets et al., Nature Biotechnology 17:198-803 (1999).\n(§3) 101 gene fragments were initially found to be differentially expressed in rat striatum in response to haloperidol. The differential expression of 50 of the gene fragments was confirmed using a unlabeled oligonucleotide competition assay as described in Shimkets et al., Nature Biotechnology 17:198-803. 32 single copy nucleic acid sequences genes and 5 repetitive copy nucleic acid sequences differentially expressed in haloperidol and vehicle treated striatum were selected for further analysis elements."}, "[2]": {"system": "Long interspersed repetitive DNA containing 7 ORFs (HALO31 in Table 1, HALO30 in text)", "protocol": "as §1, §2, §3"}, "[3]": {"system": "HALO22, NGFI-B [U17254]", "protocol": "as §1, §2, §3"}, "[4]": {"system": "HALO23, Neurogranin [L09119]", "protocol": "as §1, §2, §3"}, "[5]": {"system": "HALO35, Synaptophysin [p38]", "settings": "present studies", "protocol": "as §1, §2, §3"}, "[6]": {"system": "HALO10, novel gene fragment, 89% similar to human rab5c-like protein [U11293]", "protocol": "as §1, §2, §3"}, "[7]": {"system": "HALO8, novel gene fragment, 91% similar to mouse phosphatidylinositol 3 kinase 110 kDa subunit [U03279]", "protocol": "as §1, §2, §3"}, "[8]": {"system": "HALO20, Inositol 1.4.5-triphosphate 3-kinase [M29787]", "protocol": "as §1, §2, §3"}, "[9]": {"system": "HALO25, 190 kDa ankyrin isoform", "protocol": "as §1, §2, §3"}, "[10]": {"system": "long interspersed repetitive DNA sequence LINE3 (HALO30 in Table 1, HALO29 in text)", "protocol": "as §1, §2, §3"}, "[11]": {"system": "HALO11, novel gene fragment, 88% similar to human KIAA0383 gene [AB002381]", "protocol": "as §1, §2, §3"}, "[12]": {"system": "HALO6, novel gene fragment, 95% similarity to mouse quaking gene type 1 [U44940]", "protocol": "as §1, §2, §3"}, "[13]": {"system": "L1 retrotransposon ORF2 (HALO29 in Table 1, HALO32 in text)", "protocol": "as §1, §2, §3"}, "[14]": {"system": "HALO19, Ribosomal protein L18a [X14181]", "protocol": "as §1, §2, §3"}, "[15]": {"system": "HALO1, novel gene fragment, 86 bp", "protocol": "as §1, §2, §3"}, "[16]": {"system": "HALO2, novel gene fragment, 121 bp", "protocol": "as §1, §2, §3"}, "[17]": {"system": "HALO16, novel gene fragment, 70% similar to E. coli putative ATP-dependent RNA helicase RHLB [P24229]", "protocol": "as §1, §2, §3"}, "[18]": {"system": "L1 retrotransposon mIvi2-rn38 (HALO32 in Table 1, HALO31 in text)", "settings": "Wistar rat striatum, 0.041 mg/kg/d for 3 days continuous infusion, vs vehicle", "protocol": "as §1, §2, §3"}, "[19]": {"settings": "Wistar rat striatum, 0.041 mg/kg/d for 3 days continuous infusion, vs vehicle"}, "[20]": {"settings": "haloperidol-treated rats, striatum"}}}
{"smiles": "O=C(CCCN1CCC(O)(c2ccc(Cl)cc2)CC1)c1ccc(F)cc1", "note": "[haloperidol]", "values": [{"measurement": "Haloperidol Effect on Transcript Level: HALO18", "setting": "[1]; [19]", "result": "−2.5"}, {"measurement": "HALO18 expression diminished", "setting": "[1]; [20]", "result": 2.5, "unit": "fold"}, {"measurement": "Haloperidol Effect on Transcript Level: HALO31 Long interspersed repetitive DNA containing 7 ORFs", "setting": "[2]; [19]", "result": "−3.5"}, {"measurement": "long interspersed repetitive DNA containing 7 ORF expression decreases (text: HALO30)", "setting": "[2]; [20]", "result": 3.5, "unit": "fold"}, {"measurement": "Haloperidol Effect on Transcript Level: HALO22 NGFI-B", "setting": "[3]; [19]", "result": "+2.4"}, {"measurement": "NGFI-B expression increased (under heading HALO22)", "setting": "[3]; [20]", "result": 2.4, "unit": "fold"}, {"measurement": "Haloperidol Effect on Transcript Level: HALO23 Neurogranin", "setting": "[4]; [19]", "result": "+1.1"}, {"measurement": "HALO23 (neurogranin) expression increased", "setting": "[4]; [20]", "result": 1.1, "unit": "fold"}, {"measurement": "HALO35 (synaptophysin) expression varied", "setting": "[5]", "result": "~1", "unit": "fold"}, {"measurement": "Haloperidol Effect on Transcript Level: HALO10", "setting": "[6]; [19]", "result": "−2.0"}, {"measurement": "HALO10 expression diminished", "setting": "[6]; [20]", "result": 2, "unit": "fold"}, {"measurement": "Haloperidol Effect on Transcript Level: HALO8", "setting": "[7]; [19]", "result": "−2"}, {"measurement": "HALO8 expression diminished", "setting": "[7]; [20]", "result": 2, "unit": "fold"}, {"measurement": "Haloperidol Effect on Transcript Level: HALO20 Inositol 1.4.5-triphosphate 3-kinase", "setting": "[8]; [19]", "result": "+2"}, {"measurement": "HALO20 expression increased", "setting": "[8]; [20]", "result": 2, "unit": "fold"}, {"measurement": "Haloperidol Effect on Transcript Level: HALO25 190 kDa ankyrin isoform", "setting": "[9]; [19]", "result": "−2.0"}, {"measurement": "HALO25 (190 kDA ankyrin isoform) expression decreased", "setting": "[9]; [20]", "result": 2.0, "unit": "fold"}, {"measurement": "Haloperidol Effect on Transcript Level: HALO30 LINE3", "setting": "[10]; [19]", "result": "−5"}, {"measurement": "LINE3 expression decreases (text: HALO29)", "setting": "[10]; [20]", "result": 5, "unit": "fold"}, {"measurement": "Haloperidol Effect on Transcript Level: HALO11", "setting": "[11]; [19]", "result": "−2.0"}, {"measurement": "HALO11 expression increased", "setting": "[11]; [20]", "result": 4, "unit": "fold"}, {"measurement": "Haloperidol Effect on Transcript Level: HALO6", "setting": "[12]; [19]", "result": "−2"}, {"measurement": "HALO6 expression decreased", "setting": "[12]; [20]", "result": 2, "unit": "fold"}, {"measurement": "Haloperidol Effect on Transcript Level: HALO29 L1 retrotransposon ORF2", "setting": "[13]; [19]", "result": "−3.3"}, {"measurement": "L1 retrotransposon ORF2 expression decreases (text: HALO32)", "setting": "[13]; [20]", "result": 3.3, "unit": "fold"}, {"measurement": "Haloperidol Effect on Transcript Level: HALO19 Ribosomal protein L18a", "setting": "[14]; [19]", "result": "+1.8"}, {"measurement": "HALO19 (L18a) transcription increased", "setting": "[14]; [20]", "result": 1.8, "unit": "fold"}, {"measurement": "Haloperidol Effect on Transcript Level: HALO1", "setting": "[15]; [19]", "result": "−2.9"}, {"measurement": "HALO1 expression decreased", "setting": "[15]; [20]", "result": 2.9, "unit": "fold"}, {"measurement": "Haloperidol Effect on Transcript Level: HALO2", "setting": "[16]; [19]", "result": "−2"}, {"measurement": "HALO2 expression decreased", "setting": "[16]; [20]", "result": 2, "unit": "fold"}, {"measurement": "Haloperidol Effect on Transcript Level: HALO16", "setting": "[17]; [19]", "result": "−8"}, {"measurement": "HALO16 expression diminished", "setting": "[17]; [20]", "result": 8, "unit": "fold"}, {"measurement": "Haloperidol Effect on Transcript Level: HALO32 L1 retrotransposon mIvi2-rn38", "setting": "[18]", "result": "−5.5"}]}
